Laboratory results published in patent US8431554B2, “Compound showing anti-inflammatory activity and antiviral activity, pharmaceutical compositions comprising the same, a process for obtaining the same and use of the same in the treatment of epidemic keratoconjunctivites and herpetic stromal keratis” (priority 2007, dated 2013).

Assays:
[1] = test system: strain KOS of HSV-1 (herpetic stromal keratitis); test: Murine model of herpetic stromal keratitis (HK) induced by HSV-1; assay type: in vivo, mice; details: for incidence of HK upon completion of the period of disease / severity of lesions versus non-treated infected mice / incidence of HK (mice with signs of keratitis): treated days 1, 2, 3 p.i.; for incidence of HK upon completion of the period of disease / incidence of HK (mice with signs of keratitis): FIG. 1A; for severity of lesions versus non-treated infected mice: FIG. 1B
Procedure: To determine if the treatment with compound I, after viral inoculation, affected the signs of HK, male mice of 6-8 weeks were anesthetized with ketamine/xylazine intraperitoneally and infected with the strain KOS of HSV-1 in the right corneas, previously scrapped with a needle. One group of animals was treated with buffered saline solution (PBS) (control of disease), while the rest were treated topically with a concentration of 40 μM of compound I three times a day. Also, groups of animals to control the antiviral activity of aciclovir (ACV) and anti-inflammatory activity of dexamethasone (DEX) were included, both drugs were commercially available.
It was determined the incidence of the disease as well as the degree of severity of the lesions and evolution of HK was determined under a magnifying glass during 15 days. The diagnosis of the disease is based on the density of inflammatory infiltrates, lengthening of vessels with corneal invasion (neovascularization), and the presence of surface ulcers. Therefore, mice presenting swollen eyelids (blepharitis), neovascularization in more than 10% of the corneal surface, and corneal opacity with or without signs of necrosis, were considered sick of HK.
The signs of ocular signs are gradually developed from the days 6-7 post-infection (p.i.) and the percentage of animals with HK and severity of the signs of the disease on days 3, 8, and 15 p.i were recorded (FIG. 1 y 2).
To evaluate the antiviral activity of compound I, the compound was applied to a group of animals on days 1, 2 y 3 p.i., the days when multiplication of HSV-1 in the cornea occurs. Also, other groups of mice were treated with ACV—as a positive control of antiviral activity—and with DEX.
To evaluate the anti-inflammatory activity of compound I, the compound was applied on days 6, 7 and 8 p.i., the time when HK manifests.

[2] = test system: strain KOS of HSV-1; test: Anti-HSV-1 activity, virus yield in infected IOBA-NHC cells titrated in Vero cells; assay type: cell-based; details: for EC50: Human alphaherpesvirus 1, Vero, HSV-1 KOS, m.i. 0.2, IOBA-NHC cells, 24 h, read-out: CE50 (Effective concentration 50); for IS, Selectivity index (CC50/CE50): anti-HSV-1, IOBA-NHC cells
Procedure: To evaluate the antiviral activity of the compounds I and II, monolayers of cells IOBA-NHC grown in microplates of 24 wells were infected with the strain KOS of HSV-1 at a multiplicity of infection (m.i.) of 0.2, and treated with different concentrations of the compounds. Infected cells not treated were used as control of the infection. After incubating at 37° C. during 24 h, the free and cell associated virus was harvested and titrated in Vero cells by plating in semisolid medium. It was observed an inhibition of dose-dependent viral replication in the cells treated with the compounds I and II (Table 1).

[3] = test system: adenovirus (ADV-5); test: Antiviral activity against adenovirus in infected IOBA-NHC cultures; assay type: cell-based; details: ADV-5, IOBA-NHC; for viral activity (used for selectivity index): multiplicity of infection of 1; for inhibition of adenovirus replication, in words: multiplicity of infection of 1, different concentrations
[4] = test system: strain KOS of HSV-1 (herpetic stromal keratitis); test: Murine model of herpetic stromal keratitis (HK) induced by HSV-1; assay type: in vivo, mice; details: treated days 6, 7, 8 p.i.; read on day 10 p.i.; FIG. 2A
[5] = test system: mice; test: Toxicity assay in vivo; details: 40 μM, three times a day, three consecutive days
Procedure: A toxicity assay in vivo was performed.

[6] = test system: alpha-TNF production in macrophages J774; test: Inhibition of alpha-TNF production in LPS-treated J774 macrophages; assay type: cell-based; details: different concentrations
Description: Also, compound I has anti-inflammatory activity.
Also, said compound II has anti-inflammatory activity.

[7] = Cytotoxicity, colorimetric MTT assay in IOBA-NHC cells; assay type: cell-based; details: human, IOBA-NHC human conjunctival cells, confluent monolayers, 24 hours at 37° C., read-out: CC50 (Cytotoxyc concentration 50)
Procedure: The activity anti-HSV-1 of the compounds I and II was evaluated in human conjunctive cells (IOBA-NHC). First, it was determined cytotoxicity of the same for cells IOBA-NHC using the colorimetric assay with MTT, based on the cleavage of the tetrazolium salt MTT (3-(4,5-dimethylthiazol-2-yl)-2,5-diphenyl tetrazolium […]) by the mitochondrial enzyme succinate dehydrogenase, to obtain a blue product, formazan (Denizot F, Lang R. Rapid colorimetric assay for cell growth and survival. Journal of Immunological Methods 1986; 89:271-77). The compounds dissolved in ethanol are added to confluent monolayers of cells IOBA-NHC grown in microplates of 96 wells, in concentrations of up to 600 μM, according to the compound. The ethanol concentration was lower than 1%. After 24 hours of incubation at 37° C., the absorbency of each well was read at 570 nm, with a reference wave length of 630 nm. It was determined the 50% cytotoxyc concentration (CC50) as the concentration of compound that reduces absorbency to 50% in relation with the control not treated (Table 1).

[8] = Cytotoxicity used for the adenovirus selectivity index; assay type: cell-based; details: human; IOBA-NHC
Procedure: The antiviral selectivity index of Compound I for adenovirus is of 31.6. Said index was determined as a quotient between its viral activity (=63.2) and its cytotoxicity (=2).
The antiviral selectivity index of Compound II for adenovirus is of […] Said index was determined as a quotient between its viral activity (=62.6) and its cytotoxicity (=4).

[9] = treated days 6, 7, 8 p.i., FIG. 2A

SMILES: Nc1nc2c(ncn2COCCO)c(=O)[nH]1 [ACV, aciclovir, reference compound]
- incidence of HK upon completion of the period of disease [1]: 30%
- severity of lesions versus non-treated infected mice [1]: significant differences
- incidence of HK (mice with signs of keratitis) ([1]; read on day 8 p.i.): 10%
- HK signs, in words [1, 9]: had no effect on the improvement of disease signs

SMILES: CC[C@@H](C(C)C)[C@H](O)[C@@H](O)[C@@H](C)[C@H]1CC[C@H]2[C@@H]3CCC4=CC(=O)CC[C@]4(C)[C@H]3CC[C@]12C [Compound I, (22S,23S)-22,23-dihydroxystigmast-4-en-3-one]
- EC50 [2]: 5.4 µM
- IS, Selectivity index (CC50/CE50) [2]: 13.2
- antiviral selectivity index for adenovirus [3]: 31.6
- viral activity (used for selectivity index) [3]: 63.2
- inhibition of adenovirus replication, in words [3]: inhibits virus replication according to the concentration of compound used
- incidence of HK upon completion of the period of disease [1]: 40%
- severity of lesions versus non-treated infected mice [1]: significant differences
- incidence of HK (mice with signs of keratitis) ([1]; read on day 8 p.i.): 30%
- HK signs, in words [1, 9]: reduced significantly
- severity of the signs of keratitis versus infection control ([1]; treated days 6, 7, 8 p.i., FIG. 2B): lower
- mice with signs of the disease (HK) ([1]; treated days 6, 7, 8 p.i., read on day 8 p.i., FIG. 2A): 30%
- mice with signs of the disease (HK) [4]: 40%
- toxic effects in vivo [5]: absence of toxic effects
- inhibition of alpha-TNF production, in words [6]: inhibits production of alpha-TNF
- CC50 at 24 h [7]: 71.2 µM
- cytotoxicity [8]: 2

SMILES: CC[C@@H](C(C)C)[C@H](O)[C@@H](O)[C@@H](C)[C@H]1CC[C@H]2[C@@H]3CCC4=CC(=O)C=C[C@]4(C)[C@H]3CC[C@]12C [Compound II, (22S,23S)-22,23-dihydroxystigmasta-1,4-dien-3-one]
- EC50 [2]: 17.9 µM
- IS, Selectivity index (CC50/CE50) [2]: 3.9
- antiviral selectivity index for adenovirus [3]: 15.67
- viral activity (used for selectivity index) [3]: 62.6
- inhibition of adenovirus replication, in words [3]: inhibits virus replication according to the concentration of compound used
- inhibition of alpha-TNF production, in words [6]: inhibits production of alpha-TNF
- CC50 at 24 h [7]: 70.8 µM
- cytotoxicity [8]: 4
